Data: PubChem BioAssay AID248 (DTP/NCI, 2004)
Inconclusive results and toxic doses are left out. Rule as the data show it: active = T/C of 150% or more; inactive = T/C below 125%.

System: L1210 leukemia ip in BDF1 mice, survival T/C
Experiment: NCI In Vivo Anticancer Drug Screen. Data for tumor model L1210 Leukemia (intraperitoneal) in B6D2F1 (BDF1) mice
Details: endpoint: mean survival time, higher = longer survival
In short: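 Survival endpoint. Drug-treated group vs vehicle group, expressed as T divided by C. Tumor passaged by transplantation.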

[1] = dose: 25.0 mg/kg/injection, schedule: Q04DX002 (ip), vehicle: Klucel (hydroxypropylcellulose) (HPC)
[2] = dose: 50.0 mg/kg/injection, schedule: Q04DX002 (ip), vehicle: Klucel (hydroxypropylcellulose) (HPC)
[3] = dose: 100.0 mg/kg/injection, schedule: Q04DX003 (ip), vehicle: saline
[4] = dose: 200.0 mg/kg/injection, schedule: Q04DX003 (ip), vehicle: saline
[5] = dose: 100.0 mg/kg/injection, schedule: Q01DX001 (ip), vehicle: saline
[6] = dose: 200.0 mg/kg/injection, schedule: Q01DX001 (ip), vehicle: saline
[7] = dose: 400.0 mg/kg/injection, schedule: Q01DX001 (ip), vehicle: saline
[8] = dose: 100.0 mg/kg/injection, schedule: Q04DX003 (ip), vehicle: saline with Tween-80
[9] = dose: 200.0 mg/kg/injection, schedule: Q04DX003 (ip), vehicle: saline with Tween-80
[10] = dose: 100.0 mg/kg/injection, schedule: Q01DX001 (ip), vehicle: Klucel (hydroxypropylcellulose) (HPC)
[11] = dose: 200.0 mg/kg/injection, schedule: Q01DX001 (ip), vehicle: Klucel (hydroxypropylcellulose) (HPC)
[12] = dose: 400.0 mg/kg/injection, schedule: Q01DX001 (ip), vehicle: Klucel (hydroxypropylcellulose) (HPC)
[13] = dose: 100.0 mg/kg/injection, schedule: Q01DX001 (ip), vehicle: carboxymethylcellulose (CMC)
[14] = dose: 200.0 mg/kg/injection, schedule: Q01DX001 (ip), vehicle: carboxymethylcellulose (CMC)
[15] = dose: 400.0 mg/kg/injection, schedule: Q01DX001 (ip), vehicle: carboxymethylcellulose (CMC)
[16] = dose: 100.0 mg/kg/injection, schedule: Q04DX003 (ip), vehicle: other

Measured: T/C

CCCCCC(C[N+](C)(C)C)C(=O)/C=C/c1ccc(Cl)c(Cl)c1 (stereo not drawn)
inactive: [1] 91 % of control | [2] 98 % of control | dose: 100.0 mg/kg/injection, schedule: Q04DX002 (ip), vehicle: Klucel (hydroxypropylcellulose) (HPC) 95 % of control

CNC(=O)c1ccc[n+](CC(=O)Nc2ccccc2)c1
inactive: [3] 92 % of control | [4] 102 % of control

COc1ccccc1CC(=O)Oc1ccccc1
inactive: [5] 97 % of control | [6] 96 % of control | [7] 102 % of control

CCNC(=O)CCl
inactive: [5] 96 % of control | [6] 104 % of control

OC(Cc1nccc2ccccc12)(C(F)(F)F)C(F)(F)F
inactive: dose: 100.0 mg/kg/injection, schedule: Q01DX009 (ip), vehicle: saline with Tween-80 93 % of control | [8] 100 % of control | dose: 200.0 mg/kg/injection, schedule: Q01DX009 (ip), vehicle: saline with Tween-80 93 % of control | [9] 101 % of control | dose: 400.0 mg/kg/injection, schedule: Q01DX009 (ip), vehicle: saline with Tween-80 94 % of control | dose: 400.0 mg/kg/injection, schedule: Q04DX003 (ip), vehicle: saline with Tween-80 100 % of control

Cc1cc(=O)c2c(=O)[nH][nH]c2[nH]1
inactive: [3] 95 % of control | [4] 105 % of control | dose: 400.0 mg/kg/injection, schedule: Q04DX003 (ip), vehicle: saline 94 % of control

CC(C)c1ccccc(=O)c1O.CC(C)c1ccccc(=O)c1O.[Cu]
inactive: [9] 91 % of control

COc1cc2c(cc1C)OC(C)(CC(=O)O)C2 (stereo not drawn)
inactive: [10] 103 % of control | [11] 96 % of control | [12] 96 % of control

c1ccc(NC2CCN(C3(c4ccccc4)CCCCC3)CC2)cc1
inactive: dose: 100.0 mg/kg/injection, schedule: Q04DX002 (ip), vehicle: saline 100 % of control

CCCCN(C)N=Nc1ccccc1C(=O)NN
inactive: [13] 96 % of control | [14] 107 % of control | [15] 113 % of control

Cc1ccc(N=Cc2cc([N+](=O)[O-])ccc2O)cc1
inactive: dose: 87.5 mg/kg/injection, schedule: Q04DX003 (ip), vehicle: Klucel (hydroxypropylcellulose) (HPC) 102 % of control | dose: 175.0 mg/kg/injection, schedule: Q04DX003 (ip), vehicle: Klucel (hydroxypropylcellulose) (HPC) 92 % of control | dose: 350.0 mg/kg/injection, schedule: Q04DX003 (ip), vehicle: Klucel (hydroxypropylcellulose) (HPC) 97 % of control

O=C1C2C3CCC(O3)C2C(=O)N1N1C(=O)C2C3CCC(O3)C2C1=O (stereo not drawn)
inactive: dose: 100.0 mg/kg/injection, schedule: Q01DX009 (ip), vehicle: carboxymethylcellulose (CMC) 102 % of control | dose: 100.0 mg/kg/injection, schedule: Q04DX003 (ip), vehicle: carboxymethylcellulose (CMC) 110 % of control | dose: 200.0 mg/kg/injection, schedule: Q01DX009 (ip), vehicle: carboxymethylcellulose (CMC) 97 % of control | dose: 200.0 mg/kg/injection, schedule: Q04DX003 (ip), vehicle: carboxymethylcellulose (CMC) 111 % of control | dose: 400.0 mg/kg/injection, schedule: Q01DX009 (ip), vehicle: carboxymethylcellulose (CMC) 87 % of control | dose: 400.0 mg/kg/injection, schedule: Q04DX003 (ip), vehicle: carboxymethylcellulose (CMC) 101 % of control

O=[N+]([O-])c1cc(Cl)cc(Cl)c1O
inactive: dose: 12.5 mg/kg/injection, schedule: Q01DX009 (ip), vehicle: Klucel (hydroxypropylcellulose) (HPC) 91 % of control | dose: 12.5 mg/kg/injection, schedule: Q04DX002 (ip), vehicle: Klucel (hydroxypropylcellulose) (HPC) 90 % of control | dose: 25.0 mg/kg/injection, schedule: Q01DX009 (ip), vehicle: Klucel (hydroxypropylcellulose) (HPC) 94 % of control | [1] 97 % of control | [2] 94 % of control

O=C(N/N=C/c1ccc(O)cc1O)C(O)(c1ccccc1)c1ccccc1
inactive: [13] 106 % of control | [14] 106 % of control | [15] 108 % of control

CN(C)c1nc(=[N+](C)C)ss1
inactive: dose: 15.0 mg/kg/injection, schedule: Q01DX015 (ip), vehicle: saline 102 % of control | dose: 30.0 mg/kg/injection, schedule: Q01DX015 (ip), vehicle: saline 94 % of control | dose: 60.0 mg/kg/injection, schedule: Q01DX015 (ip), vehicle: saline 100 % of control | [8] 100 % of control | dose: 120.0 mg/kg/injection, schedule: Q01DX015 (ip), vehicle: saline 105 % of control | [9] 96 % of control

CN(N=O)C(=O)NCCCNC(=O)N(C)N=O
inactive: dose: 6.25 mg/kg/injection, schedule: Q01DX Z (ip), vehicle: carboxymethylcellulose (CMC) 118 % of control | dose: 12.5 mg/kg/injection, schedule: Q01DX Z (ip), vehicle: carboxymethylcellulose (CMC) 101 % of control | dose: 25.0 mg/kg/injection, schedule: Q01DX Z (ip), vehicle: carboxymethylcellulose (CMC) 112 % of control | dose: 150.0 mg/kg/injection, schedule: Q01DX001 (ip), vehicle: carboxymethylcellulose (CMC) 120 % of control | dose: 150.0 mg/kg/injection, schedule: Q01DX001 (ip), vehicle: saline 102 % of control | dose: 250.0 mg/kg/injection, schedule: Q01DX Z (ip), vehicle: carboxymethylcellulose (CMC) 121 % of control | dose: 300.0 mg/kg/injection, schedule: Q01DX001 (ip), vehicle: carboxymethylcellulose (CMC) 123 % of control | dose: 300.0 mg/kg/injection, schedule: Q01DX001 (ip), vehicle: saline 112 % of control | dose: 300.0 mg/kg/injection, schedule: Q01DX Z (ip), vehicle: carboxymethylcellulose (CMC) 90 % of control | dose: 600.0 mg/kg/injection, schedule: Q01DX001 (ip), vehicle: saline 109 % of control
active: dose: 100.0 mg/kg/injection, schedule: Q01DX Z (ip), vehicle: carboxymethylcellulose (CMC) 200 % of control

CCCCCCC/C=N/N=C/CCCCCCC
inactive: dose: 100.0 mg/kg/injection, schedule: Q01DX009 (ip), vehicle: other 97 % of control | [16] 97 % of control | dose: 200.0 mg/kg/injection, schedule: Q01DX009 (ip), vehicle: other 100 % of control | dose: 200.0 mg/kg/injection, schedule: Q04DX003 (ip), vehicle: other 97 % of control | dose: 400.0 mg/kg/injection, schedule: Q01DX009 (ip), vehicle: other 112 % of control | dose: 400.0 mg/kg/injection, schedule: Q04DX003 (ip), vehicle: other 109 % of control

CCCC[n+]1cnc(N)c2[nH]cnc21
inactive: dose: 50.0 mg/kg/injection, schedule: Q04DX003 (ip), vehicle: saline 93 % of control | [3] 91 % of control | [4] 100 % of control

COc1ccc2c3c1OC1CC(O)C=CC31CCN(C)C2 (stereo not drawn)
inactive: dose: 2.5 mg/kg/injection, schedule: Q01DX009 (ip), vehicle: saline 102 % of control | dose: 2.9 mg/kg/injection, schedule: Q01DX Z (ip), vehicle: saline 105 % of control | dose: 5.0 mg/kg/injection, schedule: Q01DX009 (ip), vehicle: saline 107 % of control

COc1c(F)c(F)c(Oc2c(F)c(F)c(OC)c(F)c2F)c(F)c1F
inactive: [10] 99 % of control | [11] 92 % of control | [12] 94 % of control

COc1cc(/C=C(\C#N)c2cccc3ccccc23)cc(OC)c1OC
inactive: dose: 100.0 mg/kg/injection, schedule: Q04DX003 (ip), vehicle: Klucel (hydroxypropylcellulose) (HPC) 107 % of control | dose: 200.0 mg/kg/injection, schedule: Q04DX003 (ip), vehicle: Klucel (hydroxypropylcellulose) (HPC) 103 % of control | dose: 400.0 mg/kg/injection, schedule: Q04DX003 (ip), vehicle: Klucel (hydroxypropylcellulose) (HPC) 94 % of control

CC(O)(c1ccccc1)C(C)(O)c1ccccc1 (stereo not drawn)
inactive: dose: 50.0 mg/kg/injection, schedule: Q04DX002 (ip), vehicle: saline with Tween-80 114 % of control | dose: 100.0 mg/kg/injection, schedule: Q04DX002 (ip), vehicle: saline with Tween-80 96 % of control | dose: 200.0 mg/kg/injection, schedule: Q04DX002 (ip), vehicle: saline with Tween-80 93 % of control

CC(=O)Oc1ccccc1/C=C\C=O
inactive: [5] 103 % of control | [6] 106 % of control | [7] 105 % of control

CC#CC#Cc1cccc(=O)o1
inactive: dose: 25.0 mg/kg/injection, schedule: Q04DX003 (ip), vehicle: other 90 % of control | dose: 50.0 mg/kg/injection, schedule: Q04DX003 (ip), vehicle: other 90 % of control | [16] 108 % of control
